Data on 23 compounds can be found in PubChem BioAssay (NCI).

Assay in all cases: NCI-60 cell line screen, 48 h
Test [1] deals with NCI-H23 lung.
Test [2] deals with SK-MEL-5 melanoma.
Test [3] has as its system NCI-H460 lung.
The subject of test [4] is ACHN renal.
For test [5], the system named is DU-145 prostate.
The test system of test [6] is OVCAR-8 ovarian.
Test [7] deals with SK-OV-3 ovarian.
Test [8] has as its system IGROV1 ovarian.
Test [9] deals with MDA-N.
The test system of test [10] is U251 CNS.
Test [11] concerns NCI/ADR-RES ovarian.
Test [12] relates to COLO 205 colon.
In test [13] the test system is OVCAR-4 ovarian.

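Results reflect a 48-hour exposure of cells in 96-well plates to compound at five concentrations. TGI: concentration producing complete growth inhibition.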

For `COc1cc2ncnc(Nc3cccc(Br)c3)c2cc1OC`, the TGI in test [1] is 28.7 µM; in test [2] it was 5.67 µM; in [3] it was 21.1 µM; in test [4], more than 100 µM; in [5] it was 34.2 µM; in test [6], more than 35.1 µM. In addition, the TGI is 19 µM in test [7]; 29.6 µM in [8]; more than 42.9 µM in [9]; more than 46.7 µM in [10]; 23.9 µM in test [11]; 20.8 µM in test [12]. The TGI in [13] was more than 49.8 µM.

For the compound `COP(=O)(OC)[C@@](O)(c1ccccc1)[C@@H](O)[C@H](O)c1ccccc1`, the TGI in [1], in test [2], in test [3], in test [4], in test [5] and in test [6] was more than 100 µM throughout. Moreover, the TGI in [7], in test [8], in [9], in [10], in [11] and in [12] was more than 100 µM each time. The same compound registered a TGI in [13] of more than 100 µM.

On to `COc1ccc(C2c3cc4c(cc3OC(N3CCOCC3)C2C)OCO4)cc1OC` (stereo unspecified), for which the TGI in test [1] was more than 89.6 µM; in test [2] it was more than 100 µM; in test [3], more than 63.8 µM; in test [4], more than 100 µM; in test [5], more than 79.7 µM; in test [6], more than 100 µM. In addition, the TGI in test [7] was 87.7 µM; in test [8], more than 100 µM; in test [9] it was 4.65 µM; in [10], 29.5 µM; in [11] it was 25.7 µM; in test [12], more than 44.2 µM. Moreover, the TGI in test [13] is more than 100 µM.

Take `CN(C)CCNc1c(O)c2c(c(O)c1Cl)C(=O)C=CC2=O`: the TGI in [1] came out at 4.25 µM; in [2] it was 2.88 µM; in [3], 3.63 µM; in [4] it was 9.76 µM; in test [5], 3.36 µM; in [6], 3.4 µM. Moreover, the TGI in test [7] is 32.1 µM; in test [8], 3 µM; in test [9], 4.64 µM; in test [10], 3.74 µM; in [11] it was 7.08 µM; in test [12], 3.47 µM. Moreover, in [13], the TGI turned out to be 3.29 µM.

Consider `CCN1CC2=C(OC(N)=C(C#N)C2c2ccc(Cl)cc2)/C(=C/c2ccc(Cl)cc2)C1` (stereo unspecified), for which the TGI in test [1] is 68.7 µM; in [2], more than 100 µM; in test [3] it was more than 100 µM; in test [4] it was 45.9 µM; in test [5], more than 100 µM; in test [6] it was more than 100 µM. For the same compound, the TGI in test [7] is 81.5 µM; in test [8], more than 100 µM; in test [9], more than 100 µM; in test [10], 47.2 µM; in test [11], more than 100 µM; in test [12], more than 100 µM. This compound also yielded a TGI in [13] of more than 100 µM.

As to `NC(=O)N/N=C(\Cc1cc(=O)oc2cc(O)ccc12)C(=O)Nc1ccccc1C(N)=O`, the TGI in test [1], in [2], in [3], in test [4], in [5] and in test [6] was more than 100 µM in each case. The TGI in test [7], in test [8], in [9], in [10], in [11] and in test [12] was more than 100 µM throughout. In test [13], the TGI was more than 100 µM.

In the case of `COc1nc2ncc([C@@H](OC(C)=O)[C@@H](COC(C)=O)OC(C)=O)nc2c(=O)n1C`, the TGI in test [2], in test [3], in test [4], in [5], in [6] and in [7] was more than 100 µM in each case. Further, the TGI in test [8], in test [9], in test [10], in [11], in test [12] and in [13] was more than 100 µM each time.

As to `COC(=O)C12CCCN1CCC2`, the TGI in test [1], in [2], in test [3], in test [4], in test [5] and in test [7] was more than 100 µM in each case. The TGI in test [9], in test [10], in [11], in [12] and in [13] was more than 100 µM each time.

As for `O=C1CC(Nc2ccccc2)c2c(Cl)sc(Cl)c21` (stereo unspecified), the TGI in test [1] stood at 3.75 µM; in [2] it was 16.8 µM; in [3], 24.6 µM; in [4], 2.41 µM; in test [5], 3 µM; in test [7], 26.3 µM. Also, the TGI in test [8] was found to be 3.44 µM; in test [9], 3.33 µM; in test [10] it was 3.32 µM; in test [11], 6.44 µM; in test [12] it was 2.68 µM; in [13] it was 4.21 µM.

As to `O=C(CSc1nc2ccccc2c(=O)n1-c1ccccc1)N=Nc1c(O)[nH]c2ccc(Br)cc12`, the TGI in test [1] is 10.8 µM; in test [2], more than 20.6 µM; in [3], 41.8 µM; in test [4] it was more than 94.5 µM; in test [5] it was 3.39 µM; in test [6] it was 3.99 µM. The TGI in test [7] is 13.1 µM; in test [8], 5.03 µM; in test [9], 16.9 µM; in [10], 4.26 µM; in test [11], 22.9 µM; in [12], more than 35.6 µM.

For `C[C@]12CCC(=O)C=C1CC[C@@H]1[C@@H]2CC[C@]2(C)C(=O)/C(=C/c3ccc([N+](=O)[O-])cc3)C[C@@H]12`, the TGI was more than 100 µM in [1]; more than 100 µM in [2]; more than 100 µM in test [3]; 19.9 µM in test [4]; more than 100 µM in test [5]; more than 100 µM in [6]. Also, the TGI in test [7], in [8], in test [9], in [11] and in test [12] was more than 100 µM each time.

Regarding `O=C(CN1CCCCC1)c1ccc2[nH]c(=O)oc2c1`, the TGI in test [1], in [2], in test [3], in [4], in test [5] and in test [6] was more than 100 µM throughout. The TGI in test [7], in [8], in [9], in test [10], in test [11] and in test [12] was more than 100 µM each time.

As for `COc1cc(OC)c(-n2[nH]c(=O)n(C)c2=O)c(OC)c1`, the TGI in test [1], in test [3], in test [5], in test [6], in test [7] and in test [8] was more than 100 µM in each case. In addition, the TGI in test [9], in test [10], in test [11], in test [12] and in [13] was more than 100 µM in each case.

Consider `CN(C(=O)Cc1cc(Cl)c(Cl)cc1NC(=O)CCCN)[C@H]1CCCC[C@@H]1N1CCCC1`, for which the TGI is more than 100 µM in test [1]; 29.9 µM in test [2]; more than 100 µM in test [4]; more than 100 µM in test [5]; more than 100 µM in test [6]; more than 100 µM in [7]. The TGI in [8] is more than 100 µM; in test [9], 30.7 µM; in test [10] it was 35.3 µM; in test [11], more than 100 µM; in [12] it was 35 µM; in test [13], more than 100 µM.

Consider `Cc1ccc(S(=O)(=O)N(CC(O)COc2ccccc2)c2c(F)c(F)c(F)c(F)c2F)cc1` (stereo unspecified), for which the TGI in test [1] is 29.6 µM; in [2], 25.5 µM; in [3] it was 30.3 µM; in test [4], 32 µM; in test [5], 72.9 µM; in test [6] it was 32.8 µM. The TGI came out at 43.8 µM in test [7]; 32.7 µM in test [9]; 27.9 µM in [10]; 35.1 µM in test [11]; 29.8 µM in [12]; 29.2 µM in test [13].

For the compound `Cc1cc2c3c(c1)S(=O)(=O)c1cc(Cl)ccc1N3CCC2`, the TGI in test [2], in test [3], in test [4], in test [5], in test [6] and in [7] was more than 100 µM each time. For the same compound, the TGI in test [8], in test [9], in [11], in test [12] and in test [13] was more than 100 µM throughout.

Consider `CC1=C[C@H](C[C@]2(C)c3c(c4c(C)cccc4oc3=O)O[C@@H]2C)OC1=O`, for which the TGI in test [1], in test [2], in [3], in [4], in test [5] and in test [6] was more than 100 µM throughout. Also, the TGI in test [7], in test [8], in test [9], in test [10], in test [11] and in [12] was more than 100 µM in each case.

For the compound `OC1CCN2Cc3ccccc3N=C12` (stereo unspecified), the TGI in [1], in test [2], in test [3], in test [4], in [5] and in [6] was more than 100 µM throughout. The TGI in test [7], in test [9], in test [10], in test [11], in test [12] and in [13] was more than 100 µM in each case.

For `CCCSc1ccc2[nH]c(N3C(=O)/C(=C/c4ccc(O)c(OC)c4)N=C3c3ccccc3)cc2c1`, the TGI in [1] is 61.5 µM; in test [2], 16.1 µM; in test [3], 10.1 µM; in [4], more than 100 µM; in test [5], more than 100 µM; in [6], more than 100 µM. The TGI in test [7] was 76.3 µM; in test [8] it was more than 100 µM; in test [9], 5.26 µM; in [11], more than 100 µM; in test [12], 19.5 µM.

For `c1ccc(C/C(=N\Nc2nc3ccccc3[nH]2)c2ccccn2)cc1`, the TGI in test [1] stood at 13.5 µM; in test [2] it was 4.65 µM; in test [3], 11.3 µM; in test [4], 3.06 µM; in test [5] it was 27.7 µM; in test [6], 2.08 µM. The TGI in [7] was determined as 0.413 µM; in [8], 0.327 µM; in test [9] it was 12.8 µM; in test [10], 12.3 µM; in test [11], 0.0936 µM; in test [13], 10.4 µM.

As for `CCOC(=O)c1nc2ccccc2nc1Nc1cc(OC)c(OC)c(OC)c1`, the TGI in [1], in test [2], in test [3], in test [4], in test [5] and in test [7] was more than 100 µM in each case. Also, the TGI in test [8], in test [9], in test [10], in test [11], in [12] and in [13] was more than 100 µM throughout.

As to `CCN(CC)C1=Nc2ccccc2-n2ccnc2C1`, the TGI in test [1], in [2], in test [3], in [4], in test [5] and in [6] was more than 100 µM in each case. For the same compound, the TGI in test [8], in [9], in [10], in test [11], in [12] and in [13] was more than 100 µM each time.

As for `O=C1c2cccnc2S(=O)(=O)N1c1ccc(Br)cc1`, the TGI in [1], in test [2], in test [5], in test [6], in [7] and in test [8] was more than 100 µM in each case. Also, the TGI in test [9], in [10], in test [11], in test [12] and in test [13] was more than 100 µM each time.
